Assay [1] deals with T1, Serine/threonine-protein kinase B-raf (Homo sapiens, UniProt P15056, V600E). Put plainly: Inhibition of recombinant His-tagged BRAF V600E mutant (unknown origin) (444-723 residues) expressed in Escherichia coli BL21(DE3)-RIL using MEKK97R as substrate assessed as reduction in phosphorylation incubated for 20 mins by immunoblot assay.
Assay [2] relates to A-375. Nature of the assay: Antiproliferative activity at human A375 cells expressing BRAF V600E mutant assessed as reduction in cell viability incubated for 96 hrs by MTT assay. The assay is classed as functional, cell-based. The note with it: A-375, 96 h. Background: Formazan colour is commonly taken as a measure of viable cells.
Assay [3] deals with Serine/threonine-protein kinase B-raf (Homo sapiens) (UniProt P15056). Nature of the assay: Inhibition of BRAF (unknown origin) at 1 uM relative to control.
Assay [4] has as its target RAF proto-oncogene serine/threonine-protein kinase (Homo sapiens) (UniProt P04049). Put plainly: Inhibition of CRAF (unknown origin) at 1 uM relative to control.
Assay [5] concerns the target Protein-tyrosine kinase 6 (Homo sapiens) (UniProt Q13882). Nature of the assay: Inhibition of BRK (unknown origin) at 1 uM relative to control.
The target in assay [6] is Macrophage colony-stimulating factor 1 receptor (Homo sapiens) (UniProt P07333). Nature of the assay: Inhibition of FMS (unknown origin) at 1 uM relative to control.
The target in assay [7] is T1, Serine/threonine-protein kinase B-raf. Put plainly: Inhibition of BRAF V600E in human A375 cells assessed as reduction in ERK phosphorylation incubated for 1 hr by immunoblot analysis. The assay is classed as cell-based.
The test system of assay [8] is Malme-3M. Nature of the assay: Growth inhibition of human MALME-3M cells harboring BRAF V600E mutant incubated for 48 hrs by sulforhodamine B assay. Format: functional. A general note: The SRB assay estimates cell density from bound dye.
For assay [9], the system named is MDA-MB-435. Put plainly: Growth inhibition of human MDA-MB-435 cells harboring BRAF V600E mutant incubated for 48 hrs by sulforhodamine B assay. Format: functional.
Assay [10] relates to SK-MEL-5. Nature of the assay: Growth inhibition of human SK-MEL-5 cells harboring BRAF V600E mutant incubated for 48 hrs by sulforhodamine B assay. Format: functional.
Assay [11] has as its system Serine/threonine-protein kinase B-raf (Homo sapiens), P15056 [V600E]. Put plainly: Potency index, ratio vemurafenib IC50 to test compound IC50 for Inhibition of recombinant His-tagged BRAF V600E mutant (unknown origin) (444 to 723 residues) expressed in Escherichia coli BL21(DE3)-RIL.

RAF proto-oncogene serine/threonine-protein kinase (Homo sapiens), sequence (P04049 whole entry): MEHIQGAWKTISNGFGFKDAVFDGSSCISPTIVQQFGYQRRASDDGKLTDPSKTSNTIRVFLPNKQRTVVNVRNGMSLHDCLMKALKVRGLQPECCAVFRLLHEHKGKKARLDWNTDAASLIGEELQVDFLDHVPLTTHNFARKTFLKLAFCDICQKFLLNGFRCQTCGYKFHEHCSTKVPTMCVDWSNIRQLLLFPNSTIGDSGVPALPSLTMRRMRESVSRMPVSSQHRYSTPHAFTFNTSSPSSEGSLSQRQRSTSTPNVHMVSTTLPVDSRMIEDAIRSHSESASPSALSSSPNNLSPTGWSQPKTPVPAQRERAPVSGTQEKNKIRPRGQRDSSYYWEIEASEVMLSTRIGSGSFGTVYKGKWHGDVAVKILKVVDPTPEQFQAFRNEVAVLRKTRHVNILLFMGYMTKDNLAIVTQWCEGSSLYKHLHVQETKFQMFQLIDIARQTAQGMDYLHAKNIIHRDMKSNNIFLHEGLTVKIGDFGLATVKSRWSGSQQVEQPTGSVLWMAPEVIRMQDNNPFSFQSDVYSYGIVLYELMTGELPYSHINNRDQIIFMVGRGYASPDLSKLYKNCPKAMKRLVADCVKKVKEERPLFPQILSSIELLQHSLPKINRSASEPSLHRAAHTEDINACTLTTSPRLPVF
Serine/threonine-protein kinase B-raf (Homo sapiens), sequence (P15056 whole entry): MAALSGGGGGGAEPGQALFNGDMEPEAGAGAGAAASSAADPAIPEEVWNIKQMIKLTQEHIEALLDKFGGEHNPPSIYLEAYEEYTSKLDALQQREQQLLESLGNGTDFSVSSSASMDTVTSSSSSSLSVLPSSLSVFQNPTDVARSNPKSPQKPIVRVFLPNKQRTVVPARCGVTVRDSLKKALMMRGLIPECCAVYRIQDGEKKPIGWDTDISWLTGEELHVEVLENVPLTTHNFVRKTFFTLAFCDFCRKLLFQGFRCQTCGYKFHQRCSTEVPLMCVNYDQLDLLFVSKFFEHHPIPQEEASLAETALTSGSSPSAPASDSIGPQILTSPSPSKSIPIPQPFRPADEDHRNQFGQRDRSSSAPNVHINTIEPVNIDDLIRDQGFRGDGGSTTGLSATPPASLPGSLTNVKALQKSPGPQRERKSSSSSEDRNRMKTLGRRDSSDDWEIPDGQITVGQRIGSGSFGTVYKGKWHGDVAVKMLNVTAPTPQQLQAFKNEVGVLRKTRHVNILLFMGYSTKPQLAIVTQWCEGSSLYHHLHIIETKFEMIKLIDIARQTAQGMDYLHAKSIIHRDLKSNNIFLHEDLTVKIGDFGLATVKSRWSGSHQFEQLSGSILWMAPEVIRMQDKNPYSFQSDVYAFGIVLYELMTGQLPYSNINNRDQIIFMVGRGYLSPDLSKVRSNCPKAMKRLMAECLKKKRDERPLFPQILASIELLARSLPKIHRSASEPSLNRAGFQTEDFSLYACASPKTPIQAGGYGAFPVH
T1 sequence (P15056 2-766 V600E limits assumed): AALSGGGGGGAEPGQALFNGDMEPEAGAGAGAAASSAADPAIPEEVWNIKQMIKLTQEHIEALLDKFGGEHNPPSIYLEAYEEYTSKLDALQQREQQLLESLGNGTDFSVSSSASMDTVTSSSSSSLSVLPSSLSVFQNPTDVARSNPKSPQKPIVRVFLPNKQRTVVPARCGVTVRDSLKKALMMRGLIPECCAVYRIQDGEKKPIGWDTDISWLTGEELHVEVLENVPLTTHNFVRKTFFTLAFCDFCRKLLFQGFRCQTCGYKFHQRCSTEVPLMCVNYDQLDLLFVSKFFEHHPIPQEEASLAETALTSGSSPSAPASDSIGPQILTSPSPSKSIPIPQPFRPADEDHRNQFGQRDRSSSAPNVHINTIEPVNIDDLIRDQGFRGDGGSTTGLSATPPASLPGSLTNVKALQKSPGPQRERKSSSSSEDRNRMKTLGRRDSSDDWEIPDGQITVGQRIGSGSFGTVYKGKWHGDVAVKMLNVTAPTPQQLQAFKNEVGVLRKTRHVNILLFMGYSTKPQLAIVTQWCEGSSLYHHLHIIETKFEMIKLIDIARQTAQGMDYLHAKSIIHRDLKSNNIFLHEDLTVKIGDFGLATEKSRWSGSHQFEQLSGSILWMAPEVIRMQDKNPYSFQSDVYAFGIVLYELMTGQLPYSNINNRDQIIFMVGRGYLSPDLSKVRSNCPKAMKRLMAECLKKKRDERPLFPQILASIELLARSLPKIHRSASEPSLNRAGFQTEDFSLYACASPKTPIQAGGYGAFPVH
Serine/threonine-protein kinase B-raf (Homo sapiens), P15056 [V600E], sequence (P15056 whole entry V600E, the tested form may be a part): as the sequence (P15056 whole entry) above, with V600E counted along it
Protein-tyrosine kinase 6 (Homo sapiens), sequence (Q13882 whole entry, looked up): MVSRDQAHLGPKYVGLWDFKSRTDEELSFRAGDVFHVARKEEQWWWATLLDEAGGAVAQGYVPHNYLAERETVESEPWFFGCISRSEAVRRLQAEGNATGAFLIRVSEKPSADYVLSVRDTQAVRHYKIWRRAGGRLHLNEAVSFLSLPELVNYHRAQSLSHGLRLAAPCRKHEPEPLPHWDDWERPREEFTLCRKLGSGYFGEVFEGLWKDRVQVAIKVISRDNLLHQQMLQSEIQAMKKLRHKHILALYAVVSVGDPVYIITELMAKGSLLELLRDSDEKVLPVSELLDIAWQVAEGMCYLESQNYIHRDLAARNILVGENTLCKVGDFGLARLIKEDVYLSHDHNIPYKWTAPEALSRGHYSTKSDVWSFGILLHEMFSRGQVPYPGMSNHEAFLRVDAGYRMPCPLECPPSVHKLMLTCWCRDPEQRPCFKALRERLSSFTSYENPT
Macrophage colony-stimulating factor 1 receptor (Homo sapiens), sequence (P07333 whole entry): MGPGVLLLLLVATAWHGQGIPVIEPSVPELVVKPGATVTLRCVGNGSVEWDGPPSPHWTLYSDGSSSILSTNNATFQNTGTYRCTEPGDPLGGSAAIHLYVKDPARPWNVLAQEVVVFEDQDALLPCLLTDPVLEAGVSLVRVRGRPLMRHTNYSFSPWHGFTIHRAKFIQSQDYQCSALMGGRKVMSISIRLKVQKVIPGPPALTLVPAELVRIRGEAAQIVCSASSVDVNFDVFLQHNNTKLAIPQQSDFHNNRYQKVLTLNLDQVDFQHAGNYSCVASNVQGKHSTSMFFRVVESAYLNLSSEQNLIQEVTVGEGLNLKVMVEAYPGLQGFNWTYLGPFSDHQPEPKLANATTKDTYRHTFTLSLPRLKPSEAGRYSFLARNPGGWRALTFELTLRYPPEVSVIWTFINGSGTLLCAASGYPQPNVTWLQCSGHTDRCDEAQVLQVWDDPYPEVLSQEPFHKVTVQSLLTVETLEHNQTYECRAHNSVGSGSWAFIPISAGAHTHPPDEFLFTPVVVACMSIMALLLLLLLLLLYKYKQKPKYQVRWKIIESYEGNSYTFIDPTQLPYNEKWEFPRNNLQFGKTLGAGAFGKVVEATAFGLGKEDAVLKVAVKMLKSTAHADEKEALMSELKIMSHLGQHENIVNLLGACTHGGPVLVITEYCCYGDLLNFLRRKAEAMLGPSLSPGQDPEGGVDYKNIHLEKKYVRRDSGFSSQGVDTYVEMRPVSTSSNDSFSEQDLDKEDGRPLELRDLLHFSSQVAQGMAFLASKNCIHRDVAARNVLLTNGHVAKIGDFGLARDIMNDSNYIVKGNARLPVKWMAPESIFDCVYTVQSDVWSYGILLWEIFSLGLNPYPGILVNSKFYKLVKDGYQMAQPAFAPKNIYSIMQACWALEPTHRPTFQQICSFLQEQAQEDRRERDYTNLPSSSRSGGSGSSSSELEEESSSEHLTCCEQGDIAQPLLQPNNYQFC

As usually defined, the IC50 is the concentration needed to halve the response being measured. For `CC(C)n1nc(C#Cc2cccc3c(Nc4cccc(C(F)(F)F)c4)ncnc23)c2c(N)ncnc21`, the IC50 in assay [1] is more than 300 nM.
Same read-out and setting: then `Cc1ccc(Nc2nccc3c(C#Cc4nn(C(C)C)c5ncnc(N)c45)cccc23)cc1C(F)(F)F`, with more than 300 nM; and `CC(C)n1nc(C#Cc2cccc3c(Nc4ccc(Cl)c(C(F)(F)F)c4)nccc23)c2c(N)ncnc21`, with more than 300 nM.
One may read the inhibition as the share of the control response that was lost under treatment. Low values mean a weak effect, high ones a strong effect. Consider `CCn1nc(C#Cc2c(C)ccc3c(Nc4ccc(Cl)cc4)nccc23)c2c(N)ncnc21`, for which the IC50 in assay [1] was 8 nM; in assay [2], 417 nM; in assay [7], 420 nM. Further, the inhibition in [3], in assay [4], in assay [5] and in [6] was more than 85% throughout. The Activity entry in assay [8], in assay [9] and in assay [10] was “Dose-dependent effect” in each case. For the same molecule, the figures for the GI in assay [8], in [9] and in assay [10] were 7.1 µM, 4.6 µM and 6.6 µM, respectively. Moreover, in assay [11], the Ratio IC50 was 2.
On to `CC(C)n1nc(C#Cc2cccc3c(Nc4cccc(C(F)(F)F)c4)cccc23)c2c(N)ncnc21`, for which, in [1], the IC50 is more than 300 nM.
In the case of `Cc1ccc2c(Nc3cccc(C(F)(F)F)c3)nccc2c1C#Cc1nn(C(C)C)c2ncnc(N)c12`, the IC50 in [1] came out at 21 nM; in assay [2] it was 869 nM.
For the molecule `CC(C)n1nc(C#Cc2cccc3c(Nc4cccc(C(F)(F)F)c4)nccc23)c2c(N)ncnc21`, the IC50 in [1] is 140 nM; in assay [2] it was more than 10000 nM. In addition, the inhibition in [3] and in assay [4] was more than 85% in each case.
`CC(C)n1nc(C#Cc2cccc3c(Oc4cccc(C(F)(F)F)c4)nccc23)c2c(N)ncnc21`: the IC50 in assay [1] is more than 300 nM.
For `CCn1nc(C#Cc2cccc3c(Nc4cccc(C(F)(F)F)c4)nccc23)c2c(N)ncnc21`, the IC50 in assay [1] was 41 nM; in [2], more than 10000 nM.
In the case of `Cc1cn(-c2cc(Nc3nccc4c(C#Cc5nn(C(C)C)c6ncnc(N)c56)cccc34)cc(C(F)(F)F)c2)cn1`, the IC50 in [1] was more than 300 nM.
On the same count and under the same terms, in the case of `CCCn1nc(C#Cc2cccc3c(Nc4cccc(C(F)(F)F)c4)nccc23)c2c(N)ncnc21` it was more than 300 nM.
In the case of `CC(C)n1nc(C#Cc2cccc3c(Nc4ccc(Cl)cc4)nccc23)c2c(N)ncnc21`, the concentration for half-maximal inhibition (IC50) is 29 nM in [1] and more than 10000 nM in assay [2].
Regarding `CCCS(=O)(=O)Nc1ccc(F)c(C(=O)c2c[nH]c3ncc(-c4ccc(Cl)cc4)cc23)c1F`, the inhibition in assay [3] and in assay [4] was more than 85% throughout.
